The compounds below were run against T1, IDO1 (Mus musculus, UniProt P28776) (assay: Reduction of LPS induced plasma kynurenine levels in C57BL/6 mice). Settings: LPS-injected (6 mg/kg i.p.) C57BL/6 mice; test compound given orally 20 h after LPS; plasma KYN by LC/MS/MS at 2 hr post dosing.
T1 construct: LPS-injected mice have been used as models to study IDO1 expression and activity; from tissue; host or cells: whole animal: LPS-injected C57BL/6 mice, with IDO1 induced in a variety of tissues
Format: in vivo
Source text: Inflammatory mediators such as Lipopolysaccharides (LPS) and Interferon-gamma (IFNg) are well-established inducers of IDO1 expression. Intraperitoneal (i.p.) administration of bacterial lipopolysaccharide (LPS) induces peak IDO1 activity in a variety of tissues within one day after LPS administration resulting in the production and release of kynurenine into the bloodstream (Takikawa, O., et al. (1986) J. Biol. Chem. 261:3648-53; Yoshida, H., et al. (1998) Cell 94:739-750). LPS-injected mice have been used as models to study IDO1 expression and activity. Three—eight fed C57 BL/6 mice (age 7-8 weeks, weight: about 20-22 g) were injected intrapritoneally with bacterial lipopolysaccharide (LPS; 26:B6 Sigma) at a concentration of 6 mg/kg. Animals were then housed in normal condition for 20 hours at which time the test compounds were administered orally in formulation containing 30% polyethylene glycol 400 (PEG 400) and 20% propylene glycol (PG) in normal saline (Dosing volume 10 mL/kg). Blood was drawn through retro-orbital bleeds into a tube containing 100 mM EDTA for plasma collection at the following times: just prior to LPS treatment, just prior to test compound dosing (0 hr) and then at 2 hr, 4 hr, 6 hr, 8 hr, 24 hr and 48 hr post-test compound dosing. Plasma KYN and drug levels were determined by LC/MS/MS using an API4000 mass spectrometer (Applied Biosystems) coupled to a Shimadzu Prominence LC system fitted with a C18 column.
The compounds of the invention decrease kynurenine levels. The compounds of the invention trigger a decrease of kynurenine levels at 2 hrs of at least 5%.

T1 sequence (P28776 whole entry): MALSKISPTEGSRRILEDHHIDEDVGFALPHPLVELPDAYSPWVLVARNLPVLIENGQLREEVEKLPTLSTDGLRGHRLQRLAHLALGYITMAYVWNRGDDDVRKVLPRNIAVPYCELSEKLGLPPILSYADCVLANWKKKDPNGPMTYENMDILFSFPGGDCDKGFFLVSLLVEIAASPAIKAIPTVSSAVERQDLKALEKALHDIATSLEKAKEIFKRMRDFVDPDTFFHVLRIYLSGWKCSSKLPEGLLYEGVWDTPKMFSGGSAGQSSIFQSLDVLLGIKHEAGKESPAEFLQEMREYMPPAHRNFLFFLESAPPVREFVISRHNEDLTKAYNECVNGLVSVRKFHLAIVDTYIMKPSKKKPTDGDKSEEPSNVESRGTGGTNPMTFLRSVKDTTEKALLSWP

| percentage of decrease of kynurenine level at two hours | SMILES |
| --- | --- |
| 71% | Cc1cc(-c2nccc(/C(C#N)=N/c3ccc(F)c(Cl)c3)c2O)ccn1 [Compound 09, N-(3-Chloro-4-fluorophenyl)-3-hydroxy-2′-methyl-[2,4′-bipyridine]-4-carbimidoyl nitrile] |
| 69% | Cc1cc(-c2nccc(/C(C#N)=N/c3cccc(C(F)(F)F)c3)c2O)ccn1 [Compound 38, 3-Hydroxy-2′-methyl-N-(3-(trifluoromethyl)phenyl)-[2,4′-bipyridine]-4-carbimidoyl nitrile] |
| 69% | N#C/C(=N\c1ccc(F)cc1)c1ccnc(-c2ccnc(F)c2)c1O [Compound 43, 2′-Fluoro-N-(4-fluorophenyl)-3-hydroxy-[2,4′-bipyridine]-4-carbimidoyl nitrile] |
| 36% | Cc1cc(-c2nccc(/C(C#N)=N/c3ccc(F)c(Cl)c3)c2O)cc(C)n1 [Compound 16] |
| 43% | CNC(=O)c1cc(-c2nccc(/C(C#N)=N/c3ccc(F)c(C(F)(F)F)c3)c2O)ccn1 [Compound 31, N-(4-Fluoro-3-(trifluoromethyl)phenyl)-3-hydroxy-2′-(methylcarbamoyl)-[2,4′-bipyridine]-4-carbimidoyl nitrile] |
| 70% | N#C/C(=N\c1cccc(C(F)(F)F)c1)c1ccnc(-c2ccncc2)c1O [Compound 28, 3-Hydroxy-N-(3-(trifluoromethyl)phenyl)-[2,4′-bipyridine]-4-carbimidoyl nitrile] |
| 43% | CNC(=O)c1cc(-c2nccc(/C(C#N)=N/c3ccc(F)c(Cl)c3)c2O)ccn1 [Compound 07, N-(3-Chloro-4-fluorophenyl)-3-hydroxy-2′-(methylcarbamoyl)-[2,4′-bipyridine]-4-carbimidoyl nitrile] |
| 32% | N#C/C(=N\c1cccc(C(F)(F)F)c1)c1ccnc(-c2ccccc2)c1O [Compound 42, 3-Hydroxy-2-phenyl-N-(3-(trifluoromethyl)phenyl)isonicotinimidoyl nitrile] |
| 73% | N#C/C(=N\c1ccc(F)c(Cl)c1)c1ccncc1O [Compound 01, N-(3-Chloro-4-fluorophenyl)-3-hydroxyisonicotinimidoyl nitrile] |

— patent US20170273961A1, “NOVEL IMINONITRILE DERIVATIVES” (CURADEV PHARMA, PVT. LTD., priority 2014, published 2017)
